# Laboratory results as given in patent publication US20250281606A1 (AKSEERA PHARMA CORP., priority 2020, published 2025).
# “And” between values parts separate entries of the source, which are not always exact repeats. Equal entries are not always repeated. Where two headings read alike, the source gives them in different places.
# Assays:
# [1] = tested on: IgG and IgM antibody titres (serum); experiment: IgG and IgM antibody titres in mice vaccinated with Covishield, with or without oral CBD; conditions: for IgG, serum (CLIA, EIA) / IgM, serum (CLIA, EIA): individual mice (F/M); for augmentation of overall IgG response to vaccine by CBD / augmentation of overall IgM response to vaccine by CBD: CBD throughout or until vaccination, same magnitude, vs vaccine alone; for time after vaccine by which IgG and IgM responses were significantly elevated compared to mice not given CBD: CBD throughout the study or just until vaccine
# [2] = tested on: IgG and IgM antibody titres (serum); assay type: in vivo, Balb/c mice
# [3] = 0 Day, group GII (CS): Covishild + CBD 102.5 mg/kg/d gavage day -7 to 28
# [4] = 0 Day, group GIII (CS): Covishild + CBD 102.5 mg/kg/d gavage day -7 to 0, then discontinued
# [5] = 7th Day, group GII (CS): Covishild + CBD 102.5 mg/kg/d gavage day -7 to 28
# [6] = 7th Day, group GIII (CS): Covishild + CBD 102.5 mg/kg/d gavage day -7 to 0, then discontinued
# [7] = 14 Day, group GII (CS): Covishild + CBD 102.5 mg/kg/d gavage day -7 to 28
# [8] = 14 Day, group GIII (CS): Covishild + CBD 102.5 mg/kg/d gavage day -7 to 0, then discontinued
compound,measurement,setting,value
"C=C(C)[C@@H]1CCC(C)=C[C@H]1c1c(O)cc(CCCCC)cc1O [CBD Formulation, Cannabidiol]","IgG, serum (CLIA, EIA)",[1]; [3],7.4 IU/mL and 7.8 IU/mL and 7.1 IU/mL (2×) and 6.8 IU/mL and 6.4 IU/mL
same,"IgM, serum (CLIA, EIA)",[1]; [3],9.2 AU/mL (2×) and 8.2 AU/mL and 10.1 AU/mL and 9.4 AU/mL and 8.8 AU/mL
same,"IgG, serum (CLIA, EIA)",[1]; [4],7.5 IU/mL and 6.8 IU/mL (2×) and 6.5 IU/mL and 7.21 IU/mL and 7.2 IU/mL
same,"IgM, serum (CLIA, EIA)",[1]; [4],9.4 AU/mL and 9.3 AU/mL (3×) and 9.2 AU/mL and 9.1 AU/mL
same,"IgG, serum (CLIA, EIA)",[1]; [5],7.4 IU/mL and 7.5 IU/mL and 8.2 IU/mL and 7.3 IU/mL (2×) and 7.8 IU/mL
same,"IgM, serum (CLIA, EIA)",[1]; [5],10.2 AU/mL and 8.2 AU/mL and 10.11 AU/mL and 10.5 AU/mL and 10.4 AU/mL
same,"IgG, serum (CLIA, EIA)",[1]; [6],7.4 IU/mL and 6.9 IU/mL and 7.3 IU/mL (2×) and 7.2 IU/mL and 7.1 IU/mL
same,"IgM, serum (CLIA, EIA)",[1]; [6],9.2 AU/mL and 9.6 AU/mL and 10.1 AU/mL and 10.2 AU/mL and 10.3 AU/mL
same,"IgG, serum (CLIA, EIA)",[1]; [7],7.5 IU/mL and 7.8 IU/mL (3×) and 7.6 IU/mL and 8.2 IU/mL
same,"IgM, serum (CLIA, EIA)",[1]; [7],10.5 AU/mL and 10.15 AU/mL and 10.52 AU/mL
same,"IgG, serum (CLIA, EIA)",[1]; [8],7.5 IU/mL (2×) and 7.6 IU/mL and 7.3 IU/mL and 7.8 IU/mL and 7.9 IU/mL
same,"IgM, serum (CLIA, EIA)",[1]; [8],10.1 AU/mL and 10.5 AU/mL and 10.3 AU/mL (2×)
same,"IgG, serum (CLIA, EIA)","[1]; 21 Day, group GII (CS): Covishild + CBD 102.5 mg/kg/d gavage day -7 to 28",7.8 IU/mL (2×) and 7.1 IU/mL and 7.5 IU/mL and 7.9 IU/mL and 8.1 IU/mL
same,"IgG, serum (CLIA, EIA)","[1]; 21 Day, group GIII (CS): Covishild + CBD 102.5 mg/kg/d gavage day -7 to 0, then discontinued",7.6 IU/mL (2×) and 8.1 IU/mL (3×) and 7.8 IU/mL
same,augmentation of overall IgG response to vaccine by CBD,"[1]; FIG. 2C, average overall response over 28 days",15%
same,augmentation of overall IgM response to vaccine by CBD,"[1]; FIG. 2D, average overall response over 28 days",25%
same,augmentation of overall IgG response to vaccine by CBD,"[1]; FIG. 2I, AUC over 28 days, female mice",13%
same,augmentation of overall IgM response to vaccine by CBD,"[1]; FIG. 2J, AUC over 28 days, female mice",21%
same,time after vaccine by which IgG and IgM responses were significantly elevated compared to mice not given CBD,[1]; FIGS. 2E and 2F,≤ 7 days
same,IgG response at day 7 versus vehicle (no CBD) group,"[1]; FIGS. 2K and 2L, female mice, CBD given throughout the trial",significantly better IgG response
same,time after vaccine by which IgG and IgM responses were significantly elevated compared to mice not given CBD,"[1]; FIGS. 2K and 2L, female mice",≤ 14 days
same,course of antibody titres in mice given vaccine plus CBD,"[1]; compared with vaccine without CBD, whose titres did not rise, up to day 28",rose and remained elevated until day 28
same,"IgG, serum (CLIA, EIA)",[2]; 0 Day,7.4 IU/mL and 6.8 IU/mL and 7.2 IU/mL and 7.1 IU/mL and 9.2 IU/mL and 7.5 IU/mL and 8.21 IU/mL
same,"IgG, serum (CLIA, EIA)",[2]; 14 Day,7.2 IU/mL and 6.4 IU/mL and 7.1 IU/mL and 7.4 IU/mL and 6 IU/mL and 9.1 IU/mL and 7 IU/mL and 7.3 IU/mL
same,"IgM, serum (CLIA, EIA)",[2]; 14 Day,9.3 AU/mL and 9.8 AU/mL and 10.2 AU/mL and 10.3 AU/mL and 9 AU/mL and 10.4 AU/mL and 9.2 AU/mL
same,"IgG, serum (CLIA, EIA)",[2]; 21 Day,7.3 IU/mL and 7.1 IU/mL and 7.5 IU/mL and 7.2 IU/mL and 9.1 IU/mL and 7 IU/mL and 7.4 IU/mL
same,"IgG, serum (CLIA, EIA)","[2]; mouse, in vivo",7.2 IU/mL and 7.1 IU/mL and 7.3 IU/mL and 6.9 IU/mL and 9.2 IU/mL and 7.5 IU/mL and 8.21 IU/mL
same,"IgM, serum (CLIA, EIA)","[2]; mouse, in vivo",10.2 AU/mL and 9.8 AU/mL and 10 AU/mL and 10.1 AU/mL and 10.3 AU/mL
same,augmentation by CBD of the response to Covaxin compared with Covishield,"[2]; mouse, in vivo",tended to be less
same,day at which a rise in IgM was seen,"[2]; mouse, in vivo",7 days
same,day at which a significant rise in IgG and IgM was apparent,"[2]; mouse, in vivo",7 days
same,day by which a rise in IgG was seen,"[2]; mouse, in vivo",≤ 14 days
same,overall IgM response to Covaxin versus Covaxin alone,"[2]; mouse, in vivo",augmented
